Data published in patent US11899025B2, “Pharmaceutical composition for preventing or treating neurodegenerative diseases comprising COX2 acetylating agent as active ingredient” (KYUNGPOOK NATIONAL UNIVERSITY INDUSTRY-ACADEMIC COOPERATION …, priority 2018, dated 2024).

How the values were obtained:
[1] = molecular target: T1, COX2 (Mus musculus, UniProt Q05769); experiment: COX2 acetylation analysis with [14C]N-acetyl sphingosine; assay type: cell-based; details: 2 uCi [14C]N-acetyl sphingosine; FIG. 8c
T1 construct: endogenous in cells; host or cells: primary neurons from mouse cerebrum
T1 sequence (Q05769 18-604): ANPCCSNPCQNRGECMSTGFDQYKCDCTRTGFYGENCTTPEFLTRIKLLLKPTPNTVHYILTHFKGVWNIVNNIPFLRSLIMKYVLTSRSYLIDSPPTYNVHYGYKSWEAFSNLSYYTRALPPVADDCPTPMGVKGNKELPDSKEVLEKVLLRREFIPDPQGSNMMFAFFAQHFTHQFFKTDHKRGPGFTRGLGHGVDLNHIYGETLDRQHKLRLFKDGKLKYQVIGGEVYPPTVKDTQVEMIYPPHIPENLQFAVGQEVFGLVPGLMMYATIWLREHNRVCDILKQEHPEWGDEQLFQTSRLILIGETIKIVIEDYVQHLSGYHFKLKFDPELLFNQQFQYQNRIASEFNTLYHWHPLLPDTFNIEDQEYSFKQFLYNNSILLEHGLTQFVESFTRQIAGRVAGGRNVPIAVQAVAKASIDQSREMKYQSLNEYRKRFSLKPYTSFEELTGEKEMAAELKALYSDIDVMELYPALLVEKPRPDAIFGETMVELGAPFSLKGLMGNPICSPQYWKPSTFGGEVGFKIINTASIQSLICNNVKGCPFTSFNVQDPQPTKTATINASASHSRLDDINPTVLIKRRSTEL
Procedure: In order to measure the neuroinflammatory resolution factor, after culturing neurons from mouse cerebrum, CM was prepared by treatment with 10 nM N-acetyl sphingosine 1 phosphate (Toronto Research chemicals, C262710) and N-acetyl sphingosine (Sigma, 01912). For COX2 acetylation analysis, neurons were cultured from mouse cerebrum and then treated with 2 uCi [^14C]N-acetyl sphingosine (ARC, ARC1024). In addition, for in vivo experiments, 7-month-old APP/PS1 mice were injected with 5 mg/kg N-acetyl sphingosine (Sigma, 01912), 1 mg/kg FTY720 and 3 uM S1P daily for 4 weeks via intraperitoneal injection. 1 month-old NPC mice were injected with 5 mg/kg N-acetyl sphingosine (Sigma, 01912) and 2-month-old FUS mice with 30 mg/kg N-acetyl sphingosine (Sigma, 01912) daily for 4 weeks via subcutaneous injection.
Next, it was confirmed using N-acetyl sphingosine with C^14 attached to confirm whether the secretion of the neuroinflammatory resolution factor by the compounds was due to the increase in COX2 acetylation,
In addition, it was confirmed that serine 565 (S565) against the COX2 peptide 560-[…]-575 was acetylated in the presence of N-acetyl sphingosine (FIG. 8d).

[2] = tested on: FUS R521C mice; experiment: amyotrophic lateral sclerosis animal model (FUS R521C mice): immunofluorescence, Tail suspension, Rota-rod, Hanging wired test; assay type: in vivo, mouse; details: 2-month-old FUS mice, 30 mg/kg daily for 4 weeks, subcutaneous
Text: It has been approved for mouse experiments by the Kyungpook National University Institutional Animal Care and Use Committee (IACUC). A transgenic mouse line overexpressing APPswe (hAPP695swe) or PS1 (presenilin-1M146V) based on C57BL/6 mice (Charles River, UK) was used. [Hereinafter, APP mouse: mouse overexpressing APPswe, PS1 mouse: mouse overexpressing presenilin-1M146V; GlaxoSmithKline]. As an Alzheimer's (AD) animal model, SphK1 tg (SphK1 gene overexpressing mouse) was crossed with APP mice and APP/PS1 mice to prepare APP/PS1/SphK1 tg mice. Niemanpick (NP-C) animal model, Balb/C (Orient, Wild type), NPC mutant mouse lacking NPC1 gene (Provided by Riken, Japan, NP-C mice; less weight than normal mice of the same age, and severe motor function loss from 4 to 6 weeks of age, limb tremors and seizures appear, and lifespan is approximately 9 to 10 weeks. Is) was used. As an animal model for amyotrophic lateral sclerosis (ALS), a transgenic mouse (FUS) line overexpressing RUS R521C based on C57BL/6 mice (Charles River, UK) was used.
After fixing the cerebral and hippocampus of the mouse, anti-20G10 (mouse, 1:1000) against amyloid-β (Aβ) 42 and anti-G30 (rabbit, 1:1000) against Aβ 40, anti-MAP2 (chicken, 1:2000), anti-Synaptophysin (mouse, 1:100), anti-Synapsin1 (rabbit, 1:500), anti-PSD95 (mouse, 1:100), anti-Iba-1 (rabbit, 1:500), Anti-GFAP (rabbit, 1:500) was cultured together. The site was analyzed using a laser scanning confocal microscope or Olympus BX51 microscope equipped with Fluoview SV1000 imaging software (Olympus FV1000, Japan). Metamorph software (Molecular Devices) was used to quantify the percentage of the area of the stained area relative to the area of the total tissue.
To check the motor ability of each experimental group mice, a Rota-rod, Beam test, Tail suspension test, and Hanging wired test were performed. […] The endurance time of the experimental animal was measured in seconds, and the average value was recorded. […] In the Beam test, the time taken to move to the end point after placing the mouse at the start point of a 12 mm wide bar was measured. […]

COX2 acetylation compared with the sample of SphK1, acetyl-CoA and sphingosine [1]: more acetylation
SMILES: CCCCCCCCCCCCC/C=C/[C@@H](O)[C@H](CO)NC(C)=O [N-acetyl sphingosine]
activity of microglia (Iba1) vs FUS R521C mice ([2]; FIG. 11a): decreased | activity of astrocytes (GFAP) vs FUS R521C mice ([2]; FIG. 11b): decreased | exercise capacity (Tail suspension, Rota-rod, Hanging wired test) vs FUS R521C mice ([2]; FIGS. 11c to e): improved
